The values that follow come from patent US10662140B2, “Method for skin-whitening using composition containing resveratryl triglycolate” (KYUNGPOOK NATIONAL UNIVERSITY INDUSTRY-ACADEMIC COOPERATION …, priority 2016, dated 2020).

The test system of one series is HEMs. As to the kind of experiment: Melanin synthesis in L-tyrosine-stimulated HEMs. The series is classed as cell-based, human. As to conditions: for effect on melanin synthesis: concentrations of up to 10 μM. On the procedure:
Human epidermal melanocytes (HEM) derived from neonatal human foreskins were purchased from Cascade Biologics (Portland, Oreg., USA). The HEMs were cultivated in Medium 254 supplemented with human melanocyte growth supplements (Cascade Biologics) and antibiotics.
The extracellular melanin levels were evaluated by measuring the absorbance of the conditioned media at a wavelength of 490 nm, while the intracellular melanin levels were evaluated after extracting melanin from the cells using 0.1 M NaOH at 60° C. for 60 minutes. The values for melanin content were normalized with respect to the protein content in each sample. The protein content was evaluated using the Bio-Rad DC assay (Bio-Rad Laboratories, Inc., Hercules, Calif., USA).

The subject of series [1] is Human epidermal melanocytes (HEM). As to conditions: HEMs, 48 hours.
Series [2] has as its system cultivated melanocytes and a reconstituted skin tissue model. As to conditions: cited from earlier work.
Series [3] concerns human epidermal melanocytes. The following applies: cited from earlier work.

Like-named read-outs stand apart in the source and are kept apart here.

Take `O=C(O)CO` [GA, glycolic acid]: the “effect on melanin synthesis” value in the series on HEMs is “no significant effect”.
For `CC(=O)Oc1ccc(C=Cc2cc(OC(C)=O)cc(OC(C)=O)c2)cc1` [RTA, resveratryl triacetate], the figures for the cytotoxicity entry in series [1] (concentrations above 30 μM) and in series [1] (concentrations below 30 μM) were “showed cytotoxicity” and “barely showed cytotoxicity”, respectively. Further, in series [2] (compared to resveratrol), the stability to oxidation result is “higher stability”. In addition, the toxicity entry in series [2] (compared to resveratrol) is “less toxic”. For the same compound, the melanin synthesis entry in series [2] (cultivated melanocytes and reconstituted skin tissue model) is “effective inhibitor”.
Turning to `OC[C@H]1O[C@@H](Oc2ccc(O)cc2)[C@H](O)[C@@H](O)[C@@H]1O` [arbutin], the “effect on melanin synthesis” value with HEMs is on record as “no effect”; in the series with HEMs (listed as Arbutin), “no significant effect”.
Turning to `Oc1ccc(C=Cc2cc(O)cc(O)c2)cc1` [resveratrol], in series [3], the “activity of MITF and TYR promoter” value is recorded as “suppresses”; the melanin synthesis entry was “inhibit melanin synthesis”.
For the compound `O=C(CO)Oc1ccc(/C=C/c2cc(OC(=O)CO)cc(OC(=O)CO)c2)cc1` [resveratryl triglycolate], the melanin level entry in the series with HEMs was “reduced”.
